The structures appear in SMILES notation.

The values that follow come from article PMC7726444 (Frontiers in Pharmacology, 2020).

Holding throughout (type): biochemical
One test deals with T1, WT human PAH (Homo sapiens, UniProt P00439).
T1 construct: made in house
T1 sequence (P00439 1-452): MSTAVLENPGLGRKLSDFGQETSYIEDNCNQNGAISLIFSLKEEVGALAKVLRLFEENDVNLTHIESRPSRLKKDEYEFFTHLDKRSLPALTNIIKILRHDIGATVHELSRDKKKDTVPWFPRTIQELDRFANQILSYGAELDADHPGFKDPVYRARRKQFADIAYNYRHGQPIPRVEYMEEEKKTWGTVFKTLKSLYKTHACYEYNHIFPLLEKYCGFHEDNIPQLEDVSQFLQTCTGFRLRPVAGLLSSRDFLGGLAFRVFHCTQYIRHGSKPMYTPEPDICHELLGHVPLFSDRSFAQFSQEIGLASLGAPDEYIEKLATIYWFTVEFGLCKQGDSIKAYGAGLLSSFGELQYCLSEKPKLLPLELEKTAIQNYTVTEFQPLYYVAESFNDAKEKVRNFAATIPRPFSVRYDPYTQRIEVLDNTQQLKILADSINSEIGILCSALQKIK
Put plainly: PAH enzymatic activity assay (selectivity). To be noted: up to a concentration of 100 µM. The method, then: (§1) Full-length WT TPH1 and TPH2 were expressed as N-terminal six-His-maltose-binding protein fusion proteins in pETM-41 and were cleaved and purified as described previously ([McKinney et al., 2004]; [Winge et al., 2007]). Human WT PAH and TH were expressed and isolated as described previously ([Flydal et al., 2012]; [Bezem et al., 2016]).
(§2) Purified WT human TPH2, PAH, and TH were used for this purpose, and the activity assays for each enzyme was performed as described previously ([Haavik and Flatmark, 1980]; [Winge et al., 2007]; [Aubi et al., 2015]; [Bezem et al., 2016]).

The target of test [1] is T2, doubly truncated TPH1 (ΔNH102-ΔCOOH402) (Homo sapiens, UniProt P17752).
T2 construct: The ΔNH102-ΔCOOH402 human TPH1 gene was cloned; six-His (C); made in house
The test is described as follows: Mechanism of action and kinetics analysis of TPH1 inhibition (Michaelis-Menten). The method, then: 5-OH-Trp formation was measured either at a fixed concentration (200 µM) of the cofactor, BH4, and varying concentrations (0.625–20 µM) of the substrate, L-Trp, or in the presence of varying concentrations of BH4 (2.4–200 µM) and a fixed concentration (20 µM) of L-Trp. Kinetic parameters were estimated by fitting the Michaelis-Menten model to the data using nonlinear regression.
Human doubly truncated TPH1 (ΔNH102-ΔCOOH402) was used for kinetic protein-ligand interaction studies. The enzyme assays were performed as described above. […] When enzyme activity was measured as a function of substrate (L-Trp) concentration (0.625–20 µM), the concentration of the cofactor (BH4) was fixed at 200 µM.

The next test has as its target T3, WT human TH (Homo sapiens, UniProt P07101).
T3 construct: made in house
Put plainly: TH enzymatic activity assay (selectivity). To be noted: up to a concentration of 100 µM. The method, then:
as §1, §2

Test [2] addresses T2, doubly truncated TPH1 (ΔNH102-ΔCOOH402). Put plainly: Tryptophan hydroxylase enzymatic activity assay (HPLC quantification of 5-OH-Trp), doubly truncated TPH1.

T2 sequence (P17752 102-402, stated change not applied): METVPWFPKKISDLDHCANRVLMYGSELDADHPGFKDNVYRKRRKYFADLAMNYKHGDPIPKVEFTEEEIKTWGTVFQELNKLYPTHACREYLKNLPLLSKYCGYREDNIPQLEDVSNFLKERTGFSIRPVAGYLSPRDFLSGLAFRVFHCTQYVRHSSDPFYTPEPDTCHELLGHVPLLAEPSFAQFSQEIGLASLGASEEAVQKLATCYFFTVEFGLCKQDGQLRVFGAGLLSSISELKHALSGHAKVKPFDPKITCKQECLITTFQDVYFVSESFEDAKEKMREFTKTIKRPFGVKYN
T3 sequence (P07101 1-497 isoform P07101-3): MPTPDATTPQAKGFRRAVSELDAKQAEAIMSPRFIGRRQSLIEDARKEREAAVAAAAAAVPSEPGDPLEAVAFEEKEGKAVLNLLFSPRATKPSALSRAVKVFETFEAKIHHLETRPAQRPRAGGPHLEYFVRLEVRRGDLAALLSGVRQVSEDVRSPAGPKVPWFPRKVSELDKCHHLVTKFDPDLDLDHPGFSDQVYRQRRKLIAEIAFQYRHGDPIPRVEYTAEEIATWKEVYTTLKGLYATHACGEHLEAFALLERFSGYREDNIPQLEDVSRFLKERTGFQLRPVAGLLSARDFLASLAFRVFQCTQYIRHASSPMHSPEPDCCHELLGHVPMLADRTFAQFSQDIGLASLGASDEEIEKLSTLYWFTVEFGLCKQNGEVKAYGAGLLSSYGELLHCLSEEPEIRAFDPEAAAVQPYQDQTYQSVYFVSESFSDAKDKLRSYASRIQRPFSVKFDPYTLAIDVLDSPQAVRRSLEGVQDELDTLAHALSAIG

The IC50 is the midpoint of a concentration-inhibition curve. Read a low IC50 as higher potency. For `COc1ccc2[nH]c([S+]([O-])Cc3ncc(C)c(OC)c3C)nc2c1` (centres unmarked) [Omeprazole], the “inhibition of PAH” value against WT human PAH is listed as “no inhibition”. Also, the Vmax in test [1] ((A) L-Trp 0.625–20 µM, BH4 200 µM, omeprazole 1 µM) was 24.96 (23.18–26.74) µmol/min/mg; in test [1] ((A) L-Trp 0.625–20 µM, BH4 200 µM, omeprazole 10 µM), 21.08 (18.84–23.32) µmol/min/mg; in test [1] ((A) L-Trp 0.625–20 µM, BH4 200 µM, omeprazole 100 µM), 7.03 (6.07–7.98) µmol/min/mg; in test [1] ((B) BH4 2.4–200 µM, L-Trp 20 µM, omeprazole 1 µM), 39.93 (37.18–42.69) µmol/min/mg; in test [1] ((B) BH4 2.4–200 µM, L-Trp 20 µM, omeprazole 10 µM), 31.06 (28.90–33.21) µmol/min/mg; in test [1] ((B) BH4 2.4–200 µM, L-Trp 20 µM, omeprazole 100 µM), 21.11 (18.96–23.26) µmol/min/mg. The “mode of TPH1 inhibition” value in test [1] (with respect to L-Trp and to BH4) is listed as “non-competitive inhibitor”. In addition, the “inhibition of TH” value against WT human TH was “no inhibition”. Moreover, the “reduction of TPH1 activity” value in test [2] (100 µM compound, preliminary activity assay) is listed as “more than 50%”. In test [2] (doubly truncated TPH1, 20 µM L-Trp, 200 µM BH4, 37°C, mean (95% confidence interval), three experiments in duplicate), the IC50 came to 3.09 µM.
